Measurements published in patent US10328093B2, “Anthracycline formulations” (CYTRX CORPORATION, priority 2012, dated 2019).
Several values for one entry are separate records, joined by “and”; a condition that tells them apart may be missing. Identical values can stand only once.

Columns and labels:
[1] = Solubility and stability of lyophilized DOXO-EMCH reconstituted in diluents at 10 mg/mL; type: physicochemical; settings: for pH: ambient conditions
Method: (§1) To analyze DOXO-EMCH's behavior in solution, a reversed-phase (RP) HPLC method for quantitation of DOXO-EMCH and various impurities and degradation products was utilized. Samples (1.0 μL injection volume) were assayed on an HPLC system fitted with a Phenomenex Gemini C18 column 100×2.0 mm, 3 μm at a flow rate of 0.3 mL/min. The mobile phase used was an acetate/acetonitrile gradient. The degradation product EMCH could not be detected using the above HPLC method, and was therefore determined using a liquid chromatography-mass spectrometry (LC-MS) method.
Having established preliminary information on DOXO-EMCH's properties when dissolved in NS, LR, and D5W, a follow-up study was designed to evaluate (1) the solubility and stability of DOXO-EMCH in selected diluents upon reconstitution and (2) the subsequent stability of various IV Admixtures. Diluents included Sterile Water for Injection (SWFI), Lactated Ringers Solution (LR), and 50% (v/v) ethanol/SWFI.
The study evaluating solubility and stability of lyophilized DOXO-EMCH reconstituted in SWFI, LR, and 50% (v/v) ethanol/SWFI was conducted using a target DOXO-EMCH concentration of 10 mg/mL. To obtain a 10 mg/mL concentration, 20 mL of diluent was added to a vial containing 200 mg of lyophilized DOXO-EMCH, and the vial was gently swirled to dissolve the contents and obtain a homogeneous mixture. The sample was mixed and visually inspected for complete reconstitution to a clear solution for a) approximately 30 seconds, b) approximately 60 seconds, and c) 120 seconds, then up to a total of 10 minutes. If more than 120 seconds were required for visual clarity, the vial may have been intermittently swirled up to a maximum of 10 minutes. Duplicate vials were prepared for each study. Each vial was assessed 10 minutes and 20 minutes after the addition of reconstitution diluent for visual appearance of the reconstituted solution and sampled at these time points for determination of DOXO-EMCH content, doxorubicin content, and solution pH. If a given diluent was determined to provide acceptable solubilization and stability of the vial contents after 20 minutes at ambient conditions, the diluent proceeded directly to part 2 of the study.
The reconstituted solution was evaluated for color, clarity, and absence of insoluble material in the vial after every 30 seconds of mixing. Following addition of the reconstituted drug product solution to the IV bag, the resulting IV Admixture was evaluated for color, clarity, and absence of any insoluble material immediately after mixing and at each analytical time point. The amount (area %) of the degradation product doxorubicin was determined at each time point.

rats = settings: acute and repeat-dose; cited from earlier work
[2] = Stability of DOXO-EMCH in DI water with manual pH adjustment (RP-HPLC); type: physicochemical; settings: for DOXO-EMCH / Doxorubicin: ~2.0 mg/mL in DI Water, manual pH adjustment to pH ~6.1 at 30 minute intervals
Method: as §1
An additional study was performed to obtain data on the stability of DOXO-EMCH dissolved in DI water with manual pH adjustment. The initial pH of the DOXO-EMCH solution (˜2.0 mg/mL) dissolved in DI Water was 5.4. At 30 minute intervals, the pH of the DOXO-EMCH solution was checked and adjusted to pH ˜6.1 by the dropwise addition of a 0.1 N NaOH solution.

[3] = pH stability study of DOXO-EMCH in DI Water or pH 4.0 buffer (RP-HPLC); type: physicochemical; settings: for DOXO-EMCH / Doxorubicin / pH: room temperature
Method: as §1
Studies were performed to examine the effects of pH on DOXO-EMCH stability. In these studies, a criterion of less than 3% doxorubicin over 3-5 hours was set as the goal for stability of DOXO-EMCH. Overall, studies were designed to measure the degradation of DOXO-EMCH at room temperature into doxorubicin and EMCH. Doxorubicin was measured as a percentage of the starting DOXO-EMCH material. Due to solubility issues, the buffer controlled pH portion of the study could not be completed at pH 5.0, 5.5, 6.0 and 7.0. The results below are for DOXO-EMCH dissolved in DI Water at low (2.0 mg/mL) and high (20.0 mg/mL) concentration, and DOXO-EMCH dissolved in pH 4.0 phosphate citrate buffer at low concentration. In summary, none of the conditions met the goal of less than 3% doxorubicin HCl over a 3-5 hour period. […] The DOXO-EMCH dissolved in pH 4.0 phosphate citrate buffer was very unstable, likely as a result of the breakdown of the molecule at pH values below ˜4.5 (Table 6).

[4] = ~2.0 mg/mL in DI Water, no pH adjustment, 0 hr
[5] = ~2.0 mg/mL in DI Water, no pH adjustment, 2 hr
[6] = ~2.0 mg/mL in DI Water, no pH adjustment, 4 hr
[7] = ~2.0 mg/mL in DI Water, no pH adjustment, 6 hr
[8] = ~2.0 mg/mL in pH 4.0 phosphate citrate buffer, 0 hr
[9] = ~2.0 mg/mL in pH 4.0 phosphate citrate buffer, 2 hr
[10] = ~2.0 mg/mL in pH 4.0 phosphate citrate buffer, 4 hr
[11] = ~20.0 mg/mL in DI Water, no pH adjustment, 0 hr
[12] = ~20.0 mg/mL in DI Water, no pH adjustment, 2 hr
[13] = ~20.0 mg/mL in DI Water, no pH adjustment, 4 hr
[14] = ~20.0 mg/mL in DI Water, no pH adjustment, 6 hr

## COc1cccc2c1C(=O)c1c(O)c3c(c(O)c1C2=O)C[C@@](O)(/C(CO)=N/NC(=O)CCCCCN1C(=O)C=CC1=O)C[C@@H]3O[C@H]1C[C@H](N)[C@H](O)[C@H](C)O1.Cl [DOXO-EMCH]
[1]; in ethanol:water
  solubility: completely soluble
  time to go into solution: within less than a minute
[1]; reconstituted in 50:50 ethanol:water at 10 mg/mL
  mixing time until solutions appeared visually clear: 120 s
[1]; reconstituted in 50:50 ethanol:water at 10 mg/mL, 10 minutes
  pH: 5.9
[1]; reconstituted in 50:50 ethanol:water at 10 mg/mL, 20 minutes
  pH: 5.7 and 5.8
[1]; reconstituted in LR at 10 mg/mL
  mixing time until solutions appeared visually clear: 120 s
[1]; reconstituted in LR at 10 mg/mL, 10 minutes
  pH: 6.0 and 5.9
[1]; reconstituted in LR at 10 mg/mL, 20 minutes
  pH: 5.9 and 5.8
[1]; reconstituted in SWFI at 10 mg/mL, 10 minutes
  pH: 5.4 and 5.3
[1]; reconstituted in SWFI at 10 mg/mL, 20 minutes
  pH: 5.1 and 5.5
[1]; reconstituted in SWFI at 10 mg/mL, a few undissolved particles remained
  mixing time until solutions appeared visually clear: 90 to 120 s
rats
  tolerance compared to doxorubicin: significantly higher tolerance
[2]; ~2.0 mg/mL dissolved in DI Water, before adjustment
  initial pH of the DOXO-EMCH solution: 5.4
[2]; 0 hr
  DOXO-EMCH: 98.8 wt %
  Doxorubicin: 0.5 wt %
[2]; 2 hr
  DOXO-EMCH: 91.8 wt %
  Doxorubicin: 2.4 wt %
[2]; 4 hr
  DOXO-EMCH: 85.6 wt %
  Doxorubicin: 3.6 wt %
[2]; 6 hr
  DOXO-EMCH: 80.6 wt %
  Doxorubicin: 4.3 wt %
[3]; dissolved in pH 4.0 phosphate citrate buffer
  stability: very unstable
[3]; [4]
  DOXO-EMCH: 95.8 wt %
  Doxorubicin: 0.6 wt %
  pH: 6.0
[3]; [5]
  DOXO-EMCH: 82.8 wt %
  Doxorubicin: 3.7 wt %
  pH: 5.4
[3]; [6]
  DOXO-EMCH: 76.7 wt %
  Doxorubicin: 8.9 wt %
  pH: 5.1
[3]; [7]
  DOXO-EMCH: 68.6 wt %
  Doxorubicin: 14.3 wt %
  pH: 5.0
[3]; [8]
  DOXO-EMCH: 65.1 wt %
  Doxorubicin: 23.5 wt %
  pH: 4.0
[3]; [9]
  DOXO-EMCH: 7.3 wt %
  Doxorubicin: 66.1 wt %
  pH: 4.0
[3]; [10]
  DOXO-EMCH: 2.9 wt %
  Doxorubicin: 68.8 wt %
  pH: 4.0
[3]; [11]
  DOXO-EMCH: 86.0 wt %
  Doxorubicin: 7.8 wt %
  pH: 4.8
[3]; [12]
  DOXO-EMCH: 74.9 wt %
  Doxorubicin: 15.6 wt %
  pH: 4.6
[3]; [13]
  DOXO-EMCH: 56.7 wt %
  Doxorubicin: 24.8 wt %
  pH: 4.5
[3]; [14]
  DOXO-EMCH: 45.2 wt %
  Doxorubicin: 32.2 wt %
  pH: 4.6
